Patent publication US6914045B2, “Glycopeptide antibiotics” (Wyeth Holdings Corporation, priority 2001, dated 2005)

Key:
Experiment in all cases: in vitro antibacterial evaluation, MIC by broth dilution
Assay type in all cases: cell-based
[1] = test system: Enterococcus sp.; details: broth dilution, 18 hours at 35° C.
Procedure, shortened: (§1)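 Broth dilution per NCCLS M7-A2 in Mueller-Hinton II medium, inoculum 5×10^5 CFU/mL, antibiotic range 64-0.06 μg/mL. MIC taken as lowest concentration inhibiting growth; Gram-positive panel includes recent clinical isolates resistant to methicillin, penicillin and/or vancomycin.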

[2] = test system: Staphylococcus sp.; details: broth dilution, 18 hours at 35° C.
Procedure, shortened: as §1

[3] = test system: Streptococcus sp.; details: broth dilution, 18 hours at 35° C.
Procedure, shortened: as §1

[4] = test system: Escherichia coli; details: 18 hours at 35° C.
[5] = inoculum 5×10^5 CFU/mL, strain GC 2242
[6] = inoculum 5×10^5 CFU/mL, strain GC 2691
[7] = inoculum 5×10^5 CFU/mL, strain GC 3059
[8] = inoculum 5×10^5 CFU/mL, strain ATCC 6301
[9] = inoculum 5×10^5 CFU/mL, strain GC 1894
[10] = inoculum 5×10^5 CFU/mL, strain GC 4563
[11] = inoculum 5×10^5 CFU/mL, strain GC 4564
[12] = inoculum 5×10^5 CFU/mL, strain GC 4565

CC(c1ccccc1)C1NC(=O)CNC(=O)C(CO)NC(=O)C(CC2CNC(=N)N2C2OC(CO)C(O)C(O)C2O)NC(=O)C(CC2CNC(=N)N2)NC(=O)C(Cc2ccc(OC3OC(CO)C(OC4OC(COCc5ccc(OCc6ccccc6)cc5)C(O)C(O)C4O)C(O)C3O)cc2)NC1=O (centres unmarked) [Example 246]
128 µg/mL: MIC Escherichia coli (ATCC 25922) [4]
8 µg/mL: MIC Enterococcus avium (GC 4558) [1] | MIC Enterococcus faecalis (GC 4553) [1] | MIC Enterococcus faecalis (GC 4553) ([1]; strain GC 4553) | MIC Enterococcus avium (GC 4558) ([1]; strain GC 4558) | MIC Coagulase Negative Staphylococcus (GC 4551) [2] | MIC Staphylococcus aureus (GC 1131) [2] | MIC Staphylococcus aureus (GC 4544) [2] | MIC Staphylococcus aureus (GC 1131) ([2]; strain GC 1131) | MIC Staphylococcus aureus (GC 4544) ([2]; strain GC 4544) | MIC Coagulase Negative Staphylococcus (GC 4551) ([2]; strain GC 4551)
32 µg/mL: MIC Enterococcus faecalis (GC 2691) [1] | MIC Enterococcus faecalis (GC 3059) [1] | MIC Enterococcus faecalis (GC 4554) [1] | MIC Enterococcus faecalis (GC 4554) ([1]; strain GC 4554) | MIC Enterococcus faecalis (GC 2691) [1, 6] | MIC Enterococcus faecalis (GC 3059) [1, 7]
0.5 µg/mL: MIC Streptococcus pneumoniae (GC 1894) [3] | MIC Streptococcus pneumoniae (GC 1894) [3, 9]
64 µg/mL: MIC Escherichia coli (GC 4559) [4]
4 µg/mL: MIC Enterococcus faecium (GC 4557) [1] | MIC Enterococcus faecium (GC 4557) ([1]; strain GC 4557) | MIC Coagulase Negative Staphylococcus (GC 4547) [2] | MIC Coagulase Negative Staphylococcus (GC 4548) [2] | MIC Coagulase Negative Staphylococcus (GC 4549) [2] | MIC Staphylococcus aureus (ATCC 29213) [2] | MIC Staphylococcus aureus (GC 3051) [2] | MIC Staphylococcus aureus (GC 3053) [2] | MIC Staphylococcus aureus (GC 4541) [2] | MIC Staphylococcus aureus (GC 4542) [2] | MIC Staphylococcus aureus (GC 4545) [2] | MIC Staphylococcus aureus-SMITH (GC 4543) [2] | MIC Staphylococcus haemolyticus (GC 4546) [2] | MIC Staphylococcus aureus (ATCC 29213) ([2]; strain ATCC 29213) | MIC Staphylococcus aureus (GC 3051) ([2]; strain GC 3051) | MIC Staphylococcus aureus (GC 3053) ([2]; strain GC 3053) | MIC Staphylococcus aureus (GC 4541) ([2]; strain GC 4541) | MIC Staphylococcus aureus (GC 4542) ([2]; strain GC 4542) | MIC Staphylococcus aureus-SMITH (GC 4543) ([2]; strain GC 4543) | MIC Staphylococcus aureus (GC 4545) ([2]; strain GC 4545) | MIC Staphylococcus haemolyticus (GC 4546) ([2]; strain GC 4546) | MIC Coagulase Negative Staphylococcus (GC 4547) ([2]; strain GC 4547) | MIC Coagulase Negative Staphylococcus (GC 4548) ([2]; strain GC 4548) | MIC Coagulase Negative Staphylococcus (GC 4549) ([2]; strain GC 4549) | MIC Streptococcus pyogenes (GC 4563) [3] | MIC Streptococcus pyogenes (GC 4563) [3, 10] | MIC Escherichia coli (GC 4560) [4]
16 µg/mL: MIC Enterococcus faecalis (ATCC 29212) [1] | MIC Enterococcus faecalis (GC 2242) [1] | MIC Enterococcus faecalis (GC 4552) [1] | MIC Enterococcus faecalis (GC 6189) [1] | MIC Enterococcus faecium (GC 2243) [1] | MIC Enterococcus faecium (GC 4556) [1] | MIC Enterococcus faecalis (ATCC 29212) ([1]; strain ATCC 29212) | MIC Enterococcus faecium (GC 2243) ([1]; strain GC 2243) | MIC Enterococcus faecalis (GC 4552) ([1]; strain GC 4552) | MIC Enterococcus faecium (GC 4556) ([1]; strain GC 4556) | MIC Enterococcus faecalis (GC 6189) ([1]; strain GC 6189) | MIC Enterococcus faecalis (GC 2242) [1, 5]
2 µg/mL: MIC Coagulase Negative Staphylococcus (GC 6257) [2] | MIC Coagulase Negative Staphylococcus (GC 6257) ([2]; strain GC 6257) | MIC Streptococcus agalactiae (GC 4564) [3] | MIC Streptococcus pneumoniae (ATCC 6301) [3] | MIC Streptococcus pneumoniae (GC 4565) [3] | MIC Streptococcus pneumoniae (ATCC 6301) [3, 8] | MIC Streptococcus agalactiae (GC 4564) [3, 11] | MIC Streptococcus pneumoniae (GC 4565) [3, 12]

CC(c1ccccc1)C1NC(=O)CNC(=O)C(CO)NC(=O)C(C(O)C2CNC(=N)N2C2OC(CO)C(O)C(O)C2O)NC(=O)C(C(O)C2CNC(=N)N2)NC(=O)C(Cc2ccc(OC3OC(CO)C(OC4OC(COCC=Cc5ccccc5)C(O)C(O)C4O)C(O)C3O)cc2)NC1=O (centres unmarked) [Example 242]
0.5 µg/mL: MIC Streptococcus pneumoniae (GC 1894) [3] | MIC Streptococcus pneumoniae (GC 4565) [3] | MIC Streptococcus pneumoniae (GC 1894) [3, 9] | MIC Streptococcus pneumoniae (GC 4565) [3, 12]
16 µg/mL: MIC Enterococcus avium (GC 4558) [1] | MIC Enterococcus faecalis (ATCC 29212) [1] | MIC Enterococcus faecalis (GC 2242) [1] | MIC Enterococcus faecalis (GC 2691) [1] | MIC Enterococcus faecalis (GC 3059) [1] | MIC Enterococcus faecalis (GC 4552) [1] | MIC Enterococcus faecalis (GC 4553) [1] | MIC Enterococcus faecalis (GC 4554) [1] | MIC Enterococcus faecalis (GC 6189) [1] | MIC Enterococcus faecium (GC 2243) [1] | MIC Enterococcus faecium (GC 4556) [1] | MIC Enterococcus faecalis (ATCC 29212) ([1]; strain ATCC 29212) | MIC Enterococcus faecium (GC 2243) ([1]; strain GC 2243) | MIC Enterococcus faecalis (GC 4552) ([1]; strain GC 4552) | MIC Enterococcus faecalis (GC 4553) ([1]; strain GC 4553) | MIC Enterococcus faecalis (GC 4554) ([1]; strain GC 4554) | MIC Enterococcus faecium (GC 4556) ([1]; strain GC 4556) | MIC Enterococcus avium (GC 4558) ([1]; strain GC 4558) | MIC Enterococcus faecalis (GC 6189) ([1]; strain GC 6189) | MIC Enterococcus faecalis (GC 2242) [1, 5] | MIC Enterococcus faecalis (GC 2691) [1, 6] | MIC Enterococcus faecalis (GC 3059) [1, 7] | MIC Coagulase Negative Staphylococcus (GC 4551) [2] | MIC Coagulase Negative Staphylococcus (GC 4551) ([2]; strain GC 4551)
8 µg/mL: MIC Enterococcus faecium (GC 4557) [1] | MIC Enterococcus faecium (GC 4557) ([1]; strain GC 4557) | MIC Coagulase Negative Staphylococcus (GC 4547) [2] | MIC Staphylococcus aureus (ATCC 29213) [2] | MIC Staphylococcus aureus (GC 1131) [2] | MIC Staphylococcus aureus (GC 3051) [2] | MIC Staphylococcus aureus (GC 3053) [2] | MIC Staphylococcus aureus (GC 4544) [2] | MIC Staphylococcus aureus-SMITH (GC 4543) [2] | MIC Staphylococcus aureus (ATCC 29213) ([2]; strain ATCC 29213) | MIC Staphylococcus aureus (GC 1131) ([2]; strain GC 1131) | MIC Staphylococcus aureus (GC 3051) ([2]; strain GC 3051) | MIC Staphylococcus aureus (GC 3053) ([2]; strain GC 3053) | MIC Staphylococcus aureus-SMITH (GC 4543) ([2]; strain GC 4543) | MIC Staphylococcus aureus (GC 4544) ([2]; strain GC 4544) | MIC Coagulase Negative Staphylococcus (GC 4547) ([2]; strain GC 4547)
1 µg/mL: MIC Streptococcus pneumoniae (ATCC 6301) [3] | MIC Streptococcus pneumoniae (ATCC 6301) [3, 8]
2 µg/mL: MIC Coagulase Negative Staphylococcus (GC 6257) [2] | MIC Coagulase Negative Staphylococcus (GC 6257) ([2]; strain GC 6257) | MIC Streptococcus agalactiae (GC 4564) [3] | MIC Streptococcus pyogenes (GC 4563) [3] | MIC Streptococcus pyogenes (GC 4563) [3, 10] | MIC Streptococcus agalactiae (GC 4564) [3, 11] | MIC Escherichia coli (GC 4560) [4]
4 µg/mL: MIC Coagulase Negative Staphylococcus (GC 4548) [2] | MIC Coagulase Negative Staphylococcus (GC 4549) [2] | MIC Staphylococcus aureus (GC 4541) [2] | MIC Staphylococcus aureus (GC 4542) [2] | MIC Staphylococcus aureus (GC 4545) [2] | MIC Staphylococcus haemolyticus (GC 4546) [2] | MIC Staphylococcus aureus (GC 4541) ([2]; strain GC 4541) | MIC Staphylococcus aureus (GC 4542) ([2]; strain GC 4542) | MIC Staphylococcus aureus (GC 4545) ([2]; strain GC 4545) | MIC Staphylococcus haemolyticus (GC 4546) ([2]; strain GC 4546) | MIC Coagulase Negative Staphylococcus (GC 4548) ([2]; strain GC 4548) | MIC Coagulase Negative Staphylococcus (GC 4549) ([2]; strain GC 4549)
>64 µg/mL: MIC Escherichia coli (ATCC 25922) [4] | MIC Escherichia coli (GC 4559) [4]
